Test results reported in patent publication US10590105B2, “1,3-dihydroxy-phenyl derivatives useful as immunomodulators” (BRISTOL-MYERS SQUIBB COMPANY, priority 2016, dated 2020).

These molecules were tested against PD-1/PD-L1 interaction (PD-1-Ig / PD-L1-His) (Homo sapiens (Human), UniProt Q9NZQ7) (assay: PD-1/PD-L1 Homogenous Time-Resolved Fluorescence (HTRF) binding assay). Conditions: PD-1/PD-L1 HTRF binding assay; value given as number; read-out: Range or IC50.
PD-1/PD-L1 interaction (PD-1-Ig / PD-L1-His), sequence (Q9NZQ7 other isoform, or with tags, fused parts or gaps): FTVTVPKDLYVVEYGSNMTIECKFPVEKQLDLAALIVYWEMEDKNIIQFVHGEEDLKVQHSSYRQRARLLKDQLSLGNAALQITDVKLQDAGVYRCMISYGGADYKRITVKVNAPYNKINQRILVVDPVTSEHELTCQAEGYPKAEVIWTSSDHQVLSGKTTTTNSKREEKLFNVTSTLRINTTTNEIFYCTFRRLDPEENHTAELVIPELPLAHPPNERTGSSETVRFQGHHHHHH
Text: The ability of the compounds of formula (I) to bind to PD-L1 was investigated using a PD-1/PD-L1 Homogenous Time-Resolved Fluorescence (HTRF) binding assay.
Homogenous Time-Resolved Fluorescence (HTRF) Binding Assay.
The interaction of PD-1 and PD-L1 can be assessed using soluble, purified preparations of the extracellular domains of the two proteins. The PD-1 and PD-L1 protein extracellular domains were expressed as fusion proteins with detection tags, for PD-1, the tag was the Fc portion of Immunoglobulin (PD-1-Ig) and for PD-L1 it was the 6 histidine motif (PD-L1-His). All binding studies were performed in an HTRF assay buffer consisting of dPBS supplemented with 0.1% […] bovine serum albumin and 0.05% (v/v) Tween-20. For the h/PD-L1-His binding assay, inhibitors were pre-incubated with PD-L1-His (10 nM final) for 15 m in 4 μl of assay buffer, followed by addition of PD-1-Ig (20 nM final) in 1 μl of assay buffer and further incubation for 15 m. HTRF detection was achieved using europium crypate-labeled anti-Ig (1 nM final) and allophycocyanin (APC) labeled anti-His (20 nM final). Antibodies were diluted in HTRF detection buffer and 5 μl was dispensed on top of the binding reaction. The reaction mixture was allowed to equilibrate for 30 minutes and the resulting signal (665 nm/620 nm ratio) was obtained using an EnVision fluorometer. Additional binding assays were established between the human proteins PD-1-Ig/PD-L2-His (20 & 5 nM, respectively) and CD80-His/PD-L1-Ig (100 & 10 nM, respectively).
Recombinant Proteins. Human PD-1 (25-167) with a C-terminal human Fc domain of immunoglobulin G (Ig) epitope tag [hPD-1 (25-167)-3S-IG] and human PD-L1 (18-239) with a C-terminal His epitope tag [hPD-L1(18-239)-TVMV-His] were expressed in HEK293T cells and purified sequentially by ProteinA affinity chromatography and size exclusion chromatography. Human PD-L2-His and CD80-His was obtained through commercial sources.
Ranges are as follows: A=0.001 to 0.010 micromolar; B=0.011 to 0.150 micromolar; C=0.151 to 10 micromolar.
`Cc1c(COc2cc(OCc3cncc(C#N)c3)c(CN[C@](C)(CO)C(=O)O)cc2Cl)cccc1-c1ccc2[nH]cnc2c1` [Example 1024, (R)-2-((4-((3-(1H-benzo[d]imidazol-5-yl)-2-methylbenzyl)oxy)-5-chloro-2-((5-cyanopyridin-3-yl)methoxy)benzyl)amino)-3-hydroxy-2-methylpropanoic acid] gave an IC50 of 135 nM.

Same assay, conditions: PD-1/PD-L1 HTRF binding assay; value given as range class; read-out: Range or IC50
In the case of `Cc1c(COc2cc(OCc3cncc(C#N)c3)c(CNC(C)(CO)CO)cc2Cl)cccc1-c1nccc(OCCCN2CC[C@@H](O)C2)c1Cl` [Example 2002, (R)-5-((4-chloro-5-((3-(3-chloro-4-(3-(3-hydroxypyrrolidin-1-yl)propoxy)pyridin-2-yl)-2-methylbenzyl)oxy)-2-(((1,3-dihydroxy-2-methylpropan-2-yl)amino)methyl)phenoxy)methyl)nicotinonitrile], the IC50 is reported as 1 to 10 nM.
`Cc1c(COc2cc(OCc3cncc(C#N)c3)c(CN3CCCC[C@H]3C(=O)O)cc2Cl)cccc1-c1ccc2oc(CCN3CC[C@@H](O)C3)nc2c1` [Example 1029, (S)-1-(5-chloro-2-((5-cyanopyridin-3-yl)methoxy)-4-((3-(2-(2-((R)-3-hydroxypyrrolidin-1-yl)ethyl)benzo[d]oxazol-5-yl)-2-methylbenzyl)oxy)benzyl)piperidine-2-carboxylic acid] showed an IC50 of 1 to 10 nM.
`Cc1c(OCCCN2CCCCC2)cccc1-c1ccnc(COc2cc(OCc3cncc(C#N)c3)c(CN3CCCC[C@H]3C(=O)O)cc2Cl)c1C` [Example 2014, (S)-1-(5-chloro-2-((5-cyanopyridin-3-yl)methoxy)-4-((3-methyl-4-(2-methyl-3-(3-(piperidin-1-yl)propoxy)phenyl)pyridin-2-yl)methoxy)benzyl)piperidine-2-carboxylic acid] gave an IC50 of 11 to 150 nM.
In the case of `Cc1c(COc2cc(OCc3cncc(C#N)c3)c(CN3CCC[C@@]3(C)C(=O)O)cc2Cl)cccc1-c1ccc2ccoc2c1` [Example 1020, (S)-1-(4-((3-(benzofuran-6-yl)-2-methylbenzyl)oxy)-5-chloro-2-((5-cyanopyridin-3-yl)methoxy)benzyl)-2-methylpyrrolidine-2-carboxylic acid], the IC50 is reported as 1 to 10 nM.
For `Cc1c(COc2cc(OCc3cncc(C#N)c3)c(CN[C@](C)(CO)C(=O)O)cc2Cl)cccc1-c1ccc2cnccc2c1` [Example 1009, (R)-2-((5-chloro-2-((5-cyanopyridin-3-yl)methoxy)-4-((3-(isoquinolin-6-yl)-2-methylbenzyl)oxy)benzyl)amino)-3-hydroxy-2-methylpropanoic acid], the IC50 was 11 to 150 nM.
With `Cc1c(OCCCN2CCCCC2)cccc1-c1ccnc(COc2cc(OCc3cncc(C#N)c3)c(CN[C@@](C)(CO)C(=O)O)cc2Cl)c1C` [Example 2015, (S)-2-((5-chloro-2-((5-cyanopyridin-3-yl)methoxy)-4-((3-methyl-4-(2-methyl-3-(3-(piperidin-1-yl)propoxy)phenyl)pyridin-2-yl)methoxy)benzyl)amino)-3-hydroxy-2-methylpropanoic acid] the IC50 was 1 to 10 nM.
In the case of `Cc1c(COc2cc(OCc3cncc(C#N)c3)c(CN[C@H](CO)C(=O)O)cc2Cl)cccc1-c1ccc2c(c1)ncn2CCN(C)C` [Example 1025, (R)-2-((5-chloro-2-((5-cyanopyridin-3-yl)methoxy)-4-((3-(1-(2-(dimethylamino)ethyl)-1H-benzo[d]imidazol-6-yl)-2-methylbenzyl)oxy)benzyl)amino)-3-hydroxypropanoic acid and (R)-2-((5-chloro-2-((5-cyanopyridin-3-yl)methoxy)-4-((3-(1-(2-(dimethylamino)ethyl)-1H-benzo[d]imidazol-5-yl)-2-methylbenzyl)oxy)benzyl)amino)-3-hydroxypropanoic acid], the IC50 is reported as 151 to 10000 nM.
`Cc1c(COc2cc(OCc3cncc(C#N)c3)c(CN[C@](C)(CO)C(=O)O)cc2Cl)cccc1-c1ccc2ccncc2c1` [Example 1008, (R)-2-((5-chloro-2-((5-cyanopyridin-3-yl)methoxy)-4-((3-(isoquinolin-7-yl)-2-methylbenzyl)oxy)benzyl)amino)-3-hydroxy-2-methylpropanoic acid] was tested, and the IC50 was 11 to 150 nM.
